Data: PubChem BioAssay AID248 (DTP/NCI, 2004)
“And” between values parts separate entries of the source, which are not always exact repeats. Equal entries are not always repeated. Inconclusive results and toxic doses are left out.

Test system: L1210 leukemia ip in BDF1 mice, survival T/C
Test: NCI In Vivo Anticancer Drug Screen. Data for tumor model L1210 Leukemia (intraperitoneal) in B6D2F1 (BDF1) mice
Details: endpoint: mean survival time, higher = longer survival
Summary of the method: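 Read-out is survival time, reported as the treated-group measurement over the vehicle-control measurement.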

[1] = dose: 100.0 mg/kg/injection, schedule: Q01DX001 (ip), vehicle: carboxymethylcellulose (CMC)
[2] = dose: 200.0 mg/kg/injection, schedule: Q01DX001 (ip), vehicle: carboxymethylcellulose (CMC)
[3] = dose: 400.0 mg/kg/injection, schedule: Q01DX001 (ip), vehicle: carboxymethylcellulose (CMC)
[4] = dose: 100.0 mg/kg/injection, schedule: Q04DX002 (ip), vehicle: Klucel (hydroxypropylcellulose) (HPC)
[5] = dose: 200.0 mg/kg/injection, schedule: Q04DX002 (ip), vehicle: Klucel (hydroxypropylcellulose) (HPC)
[6] = dose: 100.0 mg/kg/injection, schedule: Q01DX009 (ip), vehicle: saline with Tween-80
[7] = dose: 200.0 mg/kg/injection, schedule: Q01DX009 (ip), vehicle: saline with Tween-80
[8] = dose: 50.0 mg/kg/injection, schedule: Q01DX001 (ip), vehicle: saline
[9] = dose: 100.0 mg/kg/injection, schedule: Q04DX003 (ip), vehicle: saline with Tween-80
[10] = dose: 200.0 mg/kg/injection, schedule: Q04DX003 (ip), vehicle: saline with Tween-80
[11] = dose: 400.0 mg/kg/injection, schedule: Q04DX003 (ip), vehicle: saline with Tween-80

CNc1ccc(/C=C2\C=Cc3ccccc32)cc1
T/C (dose: 12.0 mg/kg/injection, schedule: Q01DX Z (ip), vehicle: carboxymethylcellulose (CMC)): 95 % of control | T/C (dose: 25.0 mg/kg/injection, schedule: Q01DX Z (ip), vehicle: carboxymethylcellulose (CMC)): 98 % of control | T/C (dose: 50.0 mg/kg/injection, schedule: Q01DX001 (ip), vehicle: carboxymethylcellulose (CMC)): 101 % of control | T/C (dose: 50.0 mg/kg/injection, schedule: Q01DX Z (ip), vehicle: carboxymethylcellulose (CMC)): 120 % of control | T/C [1]: 101 % of control | T/C (dose: 100.0 mg/kg/injection, schedule: Q01DX Z (ip), vehicle: carboxymethylcellulose (CMC)): 93 % of control | T/C [2]: 108 % of control | T/C (dose: 200.0 mg/kg/injection, schedule: Q01DX Z (ip), vehicle: carboxymethylcellulose (CMC)): 98 % of control | T/C [3]: 100 % of control

O=C(CN1CCOCC1)Nc1ccc(-c2ccc(NC(=O)CN3CCOCC3)cc2)cc1
T/C [1]: 92 % of control | T/C [2]: 97 % of control | T/C [3]: 92 % of control

CC[CH2][Sn]([Cl])([Cl])[CH2]CC.Oc1ccccc1C=NCCN=Cc1ccccc1O
T/C (dose: 2.5 mg/kg/injection, schedule: Q01DX009 (ip), vehicle: saline with Tween-80): 101 % of control and 109 % of control | T/C (dose: 5.0 mg/kg/injection, schedule: Q01DX009 (ip), vehicle: saline with Tween-80): 113 % of control | T/C (dose: 6.6 mg/kg/injection, schedule: Q01DX009 (ip), vehicle: saline with Tween-80): 87 % of control

S=c1cc(-c2cccs2)ss1
T/C (dose: 50.0 mg/kg/injection, schedule: Q01DX009 (ip), vehicle: saline): 107 % of control | T/C (dose: 100.0 mg/kg/injection, schedule: Q01DX009 (ip), vehicle: saline): 96 % of control and 91 % of control | T/C (dose: 100.0 mg/kg/injection, schedule: Q04DX003 (ip), vehicle: saline): 93 % of control | T/C (dose: 200.0 mg/kg/injection, schedule: Q01DX009 (ip), vehicle: saline): 93 % of control and 91 % of control | T/C (dose: 200.0 mg/kg/injection, schedule: Q04DX003 (ip), vehicle: saline): 105 % of control | T/C (dose: 300.0 mg/kg/injection, schedule: Q01DX009 (ip), vehicle: saline): 95 % of control | T/C (dose: 400.0 mg/kg/injection, schedule: Q01DX009 (ip), vehicle: saline): 98 % of control | T/C (dose: 400.0 mg/kg/injection, schedule: Q04DX003 (ip), vehicle: saline): 88 % of control

N=c1c2c(N)nc(N)nc2c2ccccc2n1O
T/C (dose: 50.0 mg/kg/injection, schedule: Q04DX002 (ip), vehicle: saline): 97 % of control | T/C (dose: 100.0 mg/kg/injection, schedule: Q04DX002 (ip), vehicle: saline): 104 % of control | T/C (dose: 200.0 mg/kg/injection, schedule: Q04DX002 (ip), vehicle: saline): 101 % of control

CCCCN(CCCC)CC(O)c1cc(-c2ccc(C(F)(F)F)cc2)nc2c(Cl)cc(Cl)cc12 (centres undefined)
T/C (dose: 100.0 mg/kg/injection, schedule: Q04DX002 (ip), vehicle: saline with Tween-80): 100 % of control | T/C (dose: 200.0 mg/kg/injection, schedule: Q04DX002 (ip), vehicle: saline with Tween-80): 92 % of control | T/C (dose: 400.0 mg/kg/injection, schedule: Q04DX002 (ip), vehicle: saline with Tween-80): 95 % of control

O=C(Nc1ccc(C2=NCCN2)cc1)Nc1cccc(NC(=O)Nc2cccc(C3=NCCN3)c2)c1
T/C (dose: 1.0 mg/kg/injection, schedule: Q01DX Z (ip), vehicle: carboxymethylcellulose (CMC)): 120 % of control and 90 % of control | T/C (dose: 2.0 mg/kg/injection, schedule: Q01DX Z (ip), vehicle: carboxymethylcellulose (CMC)): 101 % of control and 107 % of control | T/C (dose: 4.0 mg/kg/injection, schedule: Q01DX Z (ip), vehicle: carboxymethylcellulose (CMC)): 113 % of control | T/C (dose: 8.0 mg/kg/injection, schedule: Q01DX Z (ip), vehicle: carboxymethylcellulose (CMC)): 121 % of control and 244 % of control | T/C (dose: 8.0 mg/kg/injection, schedule: Q01DX Z (ip), vehicle: water): 286 % of control | T/C (dose: 16.0 mg/kg/injection, schedule: Q01DX Z (ip), vehicle: carboxymethylcellulose (CMC)): 332 % of control | T/C (dose: 16.0 mg/kg/injection, schedule: Q01DX Z (ip), vehicle: water): 172 % of control | T/C (dose: 31.0 mg/kg/injection, schedule: Q01DX Z (oral), vehicle: water): 104 % of control | T/C (dose: 62.0 mg/kg/injection, schedule: Q01DX Z (oral), vehicle: water): 112 % of control | T/C (dose: 125.0 mg/kg/injection, schedule: Q01DX Z (oral), vehicle: water): 104 % of control | T/C (dose: 250.0 mg/kg/injection, schedule: Q01DX Z (oral), vehicle: water): 102 % of control

CC(=O)OCCC(=O)N1Cc2cc3ccccc3nc2C1
T/C (dose: 10.0 mg/kg/injection, schedule: Q04DX003 (ip), vehicle: alcohol): 96 % of control | T/C (dose: 20.0 mg/kg/injection, schedule: Q04DX003 (ip), vehicle: alcohol): 94 % of control | T/C (dose: 40.0 mg/kg/injection, schedule: Q04DX003 (ip), vehicle: alcohol): 96 % of control | T/C (dose: 80.0 mg/kg/injection, schedule: Q04DX003 (ip), vehicle: alcohol): 96 % of control | T/C (dose: 160.0 mg/kg/injection, schedule: Q04DX003 (ip), vehicle: alcohol): 92 % of control

CC(=O)Oc1c2c(n3c1CCC3)CC(C)CC2=O (centres undefined)
T/C (dose: 50.0 mg/kg/injection, schedule: Q04DX002 (ip), vehicle: Klucel (hydroxypropylcellulose) (HPC)): 97 % of control | T/C [4]: 97 % of control | T/C [5]: 102 % of control

CCCc1cc(CCC)n2nc(N)nc2n1
T/C (dose: 50.0 mg/kg/injection, schedule: Q01DX009 (ip), vehicle: saline with Tween-80): 100 % of control | T/C [6]: 98 % of control | T/C [7]: 96 % of control

Cc1ccc(/C=C2/C=C(c3ccccc3)OC2=O)cc1
T/C (dose: 50.0 mg/kg/injection, schedule: Q01DX009 (ip), vehicle: alcohol): 87 % of control | T/C (dose: 100.0 mg/kg/injection, schedule: Q01DX009 (ip), vehicle: alcohol): 87 % of control | T/C (dose: 100.0 mg/kg/injection, schedule: Q04DX003 (ip), vehicle: alcohol): 92 % of control | T/C (dose: 200.0 mg/kg/injection, schedule: Q01DX009 (ip), vehicle: alcohol): 88 % of control | T/C (dose: 200.0 mg/kg/injection, schedule: Q04DX003 (ip), vehicle: alcohol): 95 % of control

NC(=O)Nc1cccc(Cl)c1
T/C (dose: 100.0 mg/kg/injection, schedule: Q04DX002 (ip), vehicle: gum acacia): 106 % of control | T/C (dose: 200.0 mg/kg/injection, schedule: Q04DX002 (ip), vehicle: gum acacia): 98 % of control | T/C (dose: 400.0 mg/kg/injection, schedule: Q04DX002 (ip), vehicle: gum acacia): 106 % of control

CCCCCOC(=O)Nc1cccc2ccccc12
T/C [4]: 94 % of control | T/C [5]: 94 % of control | T/C (dose: 400.0 mg/kg/injection, schedule: Q04DX002 (ip), vehicle: Klucel (hydroxypropylcellulose) (HPC)): 98 % of control

OC1(c2ccccc2)CC2CCCCC2c2ccccc21 (centres undefined)
T/C (dose: 12.0 mg/kg/injection, schedule: Q01DX001 (ip), vehicle: saline): 98 % of control | T/C (dose: 25.0 mg/kg/injection, schedule: Q01DX001 (ip), vehicle: saline): 100 % of control | T/C [8]: 102 % of control

O=C1OC(c2cccc(Cl)c2)=N/C1=C\c1ccccc1O
T/C (dose: 100.0 mg/kg/injection, schedule: Q01DX009 (ip), vehicle: Klucel (hydroxypropylcellulose) (HPC)): 94 % of control | T/C (dose: 400.0 mg/kg/injection, schedule: Q01DX009 (ip), vehicle: Klucel (hydroxypropylcellulose) (HPC)): 94 % of control

O=C(O)O.[Co].[NH-]CCN(CC[NH-])CC[NH-]
T/C [8]: 105 % of control | T/C (dose: 100.0 mg/kg/injection, schedule: Q01DX001 (ip), vehicle: saline): 94 % of control | T/C (dose: 200.0 mg/kg/injection, schedule: Q01DX001 (ip), vehicle: saline): 111 % of control | T/C (dose: 400.0 mg/kg/injection, schedule: Q01DX001 (ip), vehicle: saline): 100 % of control

Cc1ccc(Cl)cc1NS(=O)(=O)c1ccc(Br)cc1
T/C [6]: 95 % of control | T/C [9]: 88 % of control | T/C [7]: 90 % of control | T/C [10]: 94 % of control | T/C (dose: 400.0 mg/kg/injection, schedule: Q01DX009 (ip), vehicle: saline with Tween-80): 90 % of control | T/C [11]: 94 % of control

CCN1CCCC(Nc2nc(C(Cl)(Cl)Cl)nc3cc(Cl)ccc23)C1 (centres undefined)
T/C [6]: 104 % of control | T/C [9]: 87 % of control | T/C [10]: 89 % of control | T/C [11]: 88 % of control

CCN(CC)CCCC(C)N (centres undefined)
T/C (dose: 12.5 mg/kg/injection, schedule: Q04DX003 (ip), vehicle: saline): 104 % of control | T/C (dose: 25.0 mg/kg/injection, schedule: Q04DX003 (ip), vehicle: saline): 100 % of control | T/C (dose: 50.0 mg/kg/injection, schedule: Q04DX003 (ip), vehicle: saline): 101 % of control
